Results: US20160038526A1, “TREATMENT OF PROSTATE CANCER” (THOMAS JEFFERSON UNIVERSITY, priority 2012, published 2016)

Columns and labels:
Stat5a/b = test: Clinical prostate cancers ex vivo in explant organ cultures: nuclear Stat5a/b immunohistochemistry; type: cell-based, human; conditions: 7 days, N6BAP 5, 10, 25, 50 and 100 μM; C5 100 m
Experimental: The specimens comprised de-identified excess tissue obtained after the completion of pathology diagnosis. A zero-sample prior to organ culture was formalin-fixed for each individual prostate cancer for the analysis of the nuclear Stat5a/b status. The prostate organ cultures were performed as described earlier (Ahonen et al., Endocrinology (2002), 143:228-238). Briefly, prostate cancer tissue was cut into approximately 1 mm^3 pieces in a plain culture medium and transferred onto lens papers lying on stainless steel grids in petri dishes. The medium was phenol-free medium 199 with Earle's salts (Sigma) containing dialyzed 5% fetal calf serum, G-penicillin (100 IU/ml), streptomycin sulfate ([…]), and glutamine (100 μg/ml). […] Tissue explants were cultured in a medium containing the N6BAP or control compound C5 at indicated concentrations (C5: […]; N6BAP: 5, 10, 25, 50 and 100 μM) 7 days, after which the explants were fixed in formalin and analyzed for Stat5a/b activation and viability of prostate cancer epithelial compartment. Viability of the epithelial cells in the prostate cancer explants at the end of the cultures were scored by counting the viable epithelial cells per explant.
Nuclear Stat5a/b indexes were determined by counting the Stat5-positive cells per 500 epithelial cells in the cultured explants in each treatment group.

Stat5a = target: T1, Stat5a (Homo sapiens, UniProt P42229); test: Stat5 dimerization assay (FLAG-/MYC-tagged Stat5a co-immunoprecipitation) in PC-3 cells; type: cell-based; parameters: expressed in transfected cells; host or cells: PC-3; conditions: 2 hours pretreatment, hPrl 10 nM 30 minutes
T1 sequence (P42229 1-794): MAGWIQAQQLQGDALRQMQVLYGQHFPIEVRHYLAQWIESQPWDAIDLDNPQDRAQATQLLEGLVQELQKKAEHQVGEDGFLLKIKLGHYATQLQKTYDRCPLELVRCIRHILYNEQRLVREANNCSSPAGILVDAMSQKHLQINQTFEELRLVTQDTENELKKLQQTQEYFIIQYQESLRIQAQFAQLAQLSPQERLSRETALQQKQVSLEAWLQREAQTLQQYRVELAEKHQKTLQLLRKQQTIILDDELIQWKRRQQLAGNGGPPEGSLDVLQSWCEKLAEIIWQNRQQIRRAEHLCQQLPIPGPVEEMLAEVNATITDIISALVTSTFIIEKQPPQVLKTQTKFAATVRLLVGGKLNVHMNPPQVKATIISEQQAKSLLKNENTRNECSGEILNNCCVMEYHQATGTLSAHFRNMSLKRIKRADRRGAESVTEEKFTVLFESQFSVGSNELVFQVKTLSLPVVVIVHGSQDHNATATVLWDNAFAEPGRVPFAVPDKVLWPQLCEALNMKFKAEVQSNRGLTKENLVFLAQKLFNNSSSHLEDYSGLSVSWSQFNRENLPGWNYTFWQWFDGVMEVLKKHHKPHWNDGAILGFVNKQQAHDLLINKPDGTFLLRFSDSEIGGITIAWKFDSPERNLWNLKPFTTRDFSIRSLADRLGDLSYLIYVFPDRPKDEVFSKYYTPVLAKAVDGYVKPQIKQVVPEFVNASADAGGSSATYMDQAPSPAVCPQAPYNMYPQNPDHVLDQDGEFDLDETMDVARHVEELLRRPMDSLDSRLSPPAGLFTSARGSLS
Experimental: FLAG-tagged Stat5a and MYC-tagged Stat5a were generated as follows. Plasmid pCMV3-FLAG-Stat5a, pCMV3-MYC-Stat5a and pPrlR were co-transfected using FuGENE6 (Roche) into PC-3 cells (2 μg of each plasmid per 1×10^7 cells). The cells were starved for 20 hours, pretreated with N6BAP for 2 hours, then stimulated with hPrl (10 nM) in RPMI 1640 without serum for 30 minutes. The cell lysates were immunoprecipitated with 25 μl anti-FLAG M2 […] affinity gel (2 μg/ml, Sigma), anti-MYC pAb (1 μg/ml, Upstate) or normal rabbit serum (NRS). The primary antibodies were used in the immunoblottings at the following concentrations: anti-FLAG pAb (1:1000; Stratagene), anti-MYC mAb (1:1000; Sigma), anti-Stat5a/b mAb (1:250) (Transduction Laboratories) detected by horseradish peroxidase-conjugated secondary antibodies.
Lanes 1, 2, 4, 6, 8, 10, 12, 14 and 16 represent cells stimulated with human prolactin (Prl) for 30 minutes which induces dimerization of Stat5. Two hours prior to Prl-stimulation, the cells had been treated with DMSO (lanes 1-4), the control compound C5 (lanes 5 and 6) or N6BAP (lanes 7-16) to test whether the Stat5a/b-inhibitor compound, N6BAP, would be able to inhibit dimerization of Stat5. […] It should be noted the drug effect in this study was not due to cell apoptosis induction, as the treatment time was only 2 hours. […]

Stat3 = Stat3 (Homo sapiens, UniProt P40763); test: IL-6-induced nuclear translocation of Stat3 in DU145 cells (immunofluorescence); type: cell-based; parameters: endogenous in cells; host or cells: DU145; conditions: 2 hours pretreatment, 10 nmol/L IL-6 30 minutes
Chain of Stat3 (P40763 whole entry, species assumed): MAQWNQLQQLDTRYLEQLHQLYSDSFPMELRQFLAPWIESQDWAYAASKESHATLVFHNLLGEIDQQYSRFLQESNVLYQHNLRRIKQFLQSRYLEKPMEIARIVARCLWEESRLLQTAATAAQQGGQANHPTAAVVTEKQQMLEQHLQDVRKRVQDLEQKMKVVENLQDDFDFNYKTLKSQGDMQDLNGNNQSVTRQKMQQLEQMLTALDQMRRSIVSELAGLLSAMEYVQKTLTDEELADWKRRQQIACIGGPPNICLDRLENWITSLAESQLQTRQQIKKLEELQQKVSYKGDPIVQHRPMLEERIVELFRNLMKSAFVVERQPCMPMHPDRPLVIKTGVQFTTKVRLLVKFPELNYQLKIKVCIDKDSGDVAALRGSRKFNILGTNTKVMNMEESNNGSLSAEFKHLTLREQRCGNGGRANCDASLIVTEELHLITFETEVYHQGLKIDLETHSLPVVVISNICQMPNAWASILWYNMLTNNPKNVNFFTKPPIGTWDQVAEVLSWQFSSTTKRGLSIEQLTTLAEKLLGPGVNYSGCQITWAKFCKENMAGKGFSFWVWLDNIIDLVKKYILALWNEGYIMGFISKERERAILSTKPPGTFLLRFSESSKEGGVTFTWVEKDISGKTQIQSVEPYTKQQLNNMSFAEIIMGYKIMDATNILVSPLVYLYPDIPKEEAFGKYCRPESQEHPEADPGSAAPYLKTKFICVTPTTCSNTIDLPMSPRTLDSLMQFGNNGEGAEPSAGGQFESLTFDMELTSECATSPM
Experimental: DU145 prostate cancer cells were pretreated with N6BAP or vehicle (DMSO) for 2 hours and then stimulated with 10 nmol/L IL-6 for 30 minutes. Cells were fixed with 100% methanol for 15 min and subsequently permeabilized with 0.1% Triton X-100 in PBS (pH 7.4). After blocking with 2% bovine serum albumin in PBS, cells were incubated with an antibody specific for Stat3 at 4° C. for 2 hours. Cells were then washed with PBS and incubated with FITC-conjugated secondary antibody (Jackson ImmunoResearch) at room temperature for 1 hour. The images were taken by using an inverted fluorescence microscopy (Carl Zeiss).

Compound | nuclear Stat5 expression in explant organ cultures (Stat5a/b) | dimerization of Stat5a (Stat5a) | nuclear translocation of IL-6-induced Stat3 (Stat3)
Nc1nc(SCc2cccnc2)[nH]c(=O)c1NC(=O)c1ccco1 [C5, reference compound] | Intensive positive immunostaining for nuclear Stat5 | did not inhibit dimerization of Stat5a | 
Cc1cc(Nc2nc(N[C@@H](C)c3ncc(F)cn3)ncc2Cl)n[nH]1 [AZD1480, reference compound] |  |  | blocks nuclear translocation of IL-6-induced Stat3 efficiently
